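A five-concentration, 48-hour dose response in 96-well plates underlies each endpoint, interpolated linearly between surrounding concentrations. GI50 is the concentration that inhibits growth by half.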 Active and inactive are the calls of the source. No stated cut-off is given here; in the data, active = GI50 up to about 1.1 µM and inactive = higher.

A word on the GI50: it is the concentration giving 50% growth inhibition.

Some test systems named below: 786-0; DU-145; TK-10; MCF7; PC-3; BT-549; XF498; LXFL 529; RXF 631.
What all share (test): DTP human tumour cell line panel, 48 h

As for `COc1ccccc1NC(=O)/C(Cc1nc2ccc([N+](=O)[O-])cc2nc1O)=N\NC(=O)C[N+](C)(C)C`, the GI50 in the test on 786-0 was 68.7 µM (inactive); in the test with DU-145, > 100 µM (inactive); in the test on TK-10, > 100 µM (inactive); in the test on MCF7 it was 72.8 µM (inactive); in the test with PC-3, > 100 µM (inactive); in the test on BT-549, > 100 µM (inactive).

Consider `N=C(N)NS(=O)(=O)c1ccc(Nc2c3ccccc3nc3c(C(=O)N4CCN(CCO)CC4)ccc(Cl)c23)cc1`, for which the GI50 with TK-10 and in the test with XF498 was > 100 µM (inactive) throughout.

On to `Cn1c(=O)[nH]c2c(c1=O)C(=O)CN2`, for which the GI50 in the test with TK-10, in the test with XF498 and with LXFL 529 was > 100 µM (inactive) throughout.

Take `Nc1c(Br)cc2c(c1Br)Cc1cc(Br)ccc1-2`: the GI50 in the test with DU-145, in the test with TK-10, with MCF7 and in the test with PC-3 was > 100 µM (inactive) each time.

In the case of `c1nc2nc[nH]c(SSc3[nH]cnc4ncnc3-4)c-2n1`, the 50% growth inhibitory concentration (GI50) was < 0.0343 µM (active) in the test on TK-10, 0.136 µM (active) in the test on MCF7, 1.23 µM (inactive) in the test on PC-3 and 14.1 µM (inactive) in the test on BT-549.

Turning to `NC(=O)NN=C(CS)CS`, the results for the GI50 with MCF7 and with XF498 were 24 µM (inactive) and < 0.01 µM (active), respectively.

Consider `Nc1nc(=O)n(CC(O)CO)s1` (stereo unspecified), for which the GI50 in the test on TK-10, in the test on RXF 631 and with LXFL 529 was > 100 µM (inactive) in each case.

With `S=C(N/N=C(/c1ccccc1)c1ccccn1)Nc1cccc(Cl)c1`, the GI50 was 1.15 µM (inactive) in the test on DU-145, 0.714 µM (active) in the test with TK-10, 0.091 µM (active) in the test on MCF7 and 1.05 µM (active) in the test with BT-549.

As for `COc1ccc(-c2cc(-c3ccccc3)c(C#N)c(=O)n2C2OC(CO)C(O)C(O)C2O)cc1` (stereo unspecified), the GI50 in the test with 786-0, in the test with TK-10, with RXF 631 and in the test with LXFL 529 was > 100 µM (inactive) throughout.

For `NC(S)=Nc1cc(Cl)ccc1Cl`, the GI50 with TK-10 was > 100 µM (inactive); with RXF 631, > 100 µM (inactive); with XF498 it was 94.6 µM (inactive); in the test with LXFL 529, > 100 µM (inactive).

Turning to `Nc1ncnc2c1sc1nc3ccccc3n12`, the GI50 was > 100 µM (inactive) in the test with DU-145; > 100 µM (inactive) in the test with TK-10; 23 µM (inactive) in the test with MCF7; > 100 µM (inactive) in the test with PC-3; 80 µM (inactive) with BT-549.

With `Cc1ccc(C(=O)C2CC3(CCC2(O)c2ccc(C)cc2)CC(=O)Nc2ccccc2C3=O)cc1` (stereo unspecified), the GI50 was > 100 µM (inactive) in the test on DU-145; > 100 µM (inactive) in the test on TK-10; 7.6 µM (inactive) with MCF7; 7.05 µM (inactive) in the test with PC-3; > 100 µM (inactive) in the test on BT-549.

With `CCN(CC)c1ccc2cc(C(=O)Nc3ccc4[nH]c(C(=O)N5C[C@@H](CCl)c6c5cc(OC(=O)Nc5ccccc5)c5[nH]cc(C)c65)cc4c3)oc2c1` [CARZELESIN], in the test with MCF7, the GI50 was 9.25e-05 µM (active).

Regarding `COc1nc(-c2cn(S(=O)(=O)c3ccc(C)cc3)c3ccc(Br)cc23)cc(C(F)(F)F)c1C#N`, the GI50 in the test on DU-145 was 16.5 µM (inactive); in the test with MCF7 it was 50.4 µM (inactive); in the test on PC-3 it was 47.4 µM (inactive); in the test on BT-549, 24.5 µM (inactive).

Take `Cc1cnc(SCCN2CCN(C)CC2)nc1-c1cc2ccccc2s1`: the GI50 was 12 µM (inactive) in the test on 786-0, 17.4 µM (inactive) in the test with TK-10 and 13.8 µM (inactive) in the test on LXFL 529.

`CCSc1nc(N)c2c(-c3ccccc3)c3c(nc2n1)CCC3`: the GI50 in the test with DU-145, in the test on TK-10, in the test with MCF7, with PC-3 and in the test on BT-549 was > 100 µM (inactive) throughout.

Turning to `Cc1[nH]c(=O)nc(S)c1C(=O)NC1C2CCCCC2NC2CCCCC21` (stereo unspecified), the GI50 in the test with DU-145 was 11.8 µM (inactive); in the test with TK-10, 16.5 µM (inactive); in the test with MCF7, 17 µM (inactive); with PC-3, 13.2 µM (inactive); in the test on BT-549, 16.4 µM (inactive).

With `COc1ccc(-c2c(C#N)c(N)nc3c2CCS(=O)(=O)c2ccccc2-3)cc1`, the GI50 is 68.2 µM (inactive) in the test with 786-0; > 100 µM (inactive) in the test on DU-145; > 100 µM (inactive) with TK-10; > 100 µM (inactive) in the test on PC-3; > 100 µM (inactive) with BT-549.

On to `CCOC(=O)[C@H]1Nc2c(cccc2[N+](=O)[O-])[C@H]2OCC[C@@H]12`, for which the GI50 with TK-10, with RXF 631, with XF498 and with LXFL 529 was > 100 µM (inactive) each time.

Take `Cc1ccc(N(O)C(C)(C)C)cc1`: the GI50 in the test with MCF7 and with XF498 was > 100 µM (inactive) throughout.

Consider `Cc1cccc(C)c1NC(=S)N/C=C(\C#N)C(N)=O`, for which the GI50 in the test on 786-0, in the test with DU-145, in the test with TK-10, in the test with MCF7 and in the test with PC-3 was > 100 µM (inactive) each time.

Take `COc1ccc(N2C(=O)CSC2c2c[nH]c3ccccc23)cc1` (stereo unspecified): the GI50 with DU-145 is 51.8 µM (inactive); in the test on TK-10 it was 59.8 µM (inactive); with MCF7, 70.1 µM (inactive); with PC-3 it was 24.7 µM (inactive); in the test on BT-549, 85.1 µM (inactive).

As for `CC(C)(C)[Si](C)(C)OCCOCn1cc(F)c(=O)[nH]c1=O`, the GI50 was > 100 µM (inactive) in the test on 786-0; 36.5 µM (inactive) in the test with DU-145; > 100 µM (inactive) in the test on TK-10; > 100 µM (inactive) in the test on MCF7; > 100 µM (inactive) in the test on PC-3; > 100 µM (inactive) with BT-549.

As to `CC(C)(C)[Si](OC1CC(n2cnc3c(N)ncnc32)OC1CO)(c1ccccc1)c1ccccc1` (stereo unspecified), the GI50 with TK-10 was 24.2 µM (inactive); in the test on XF498, 10.4 µM (inactive); in the test with LXFL 529 it was 34.6 µM (inactive).

Take `O=C1CC(=O)N(c2ccccc2)N1/C(=C/c1ccccc1)c1ccccc1`: the GI50 is 24.4 µM (inactive) in the test on DU-145; 21.3 µM (inactive) in the test with TK-10; 21 µM (inactive) in the test with MCF7; 15.7 µM (inactive) in the test with PC-3; 23.6 µM (inactive) with BT-549.

With `CCOC(=O)NC(=O)c1cn(CCNCCO)c(=O)[nH]c1=O`, the GI50 in the test with XF498 and in the test on LXFL 529 was > 100 µM (inactive) in each case.

In the case of `COc1cc(/N=N\c2cccc(S(=O)(=O)O)c2)c(C)cc1/N=N\c1ccc(/C=C/c2ccc(/N=[N+](/[O-])c3ccc(/C=C/c4ccc(/N=N\c5cc(C)c(/N=N/c6cccc(S(=O)(=O)O)c6)cc5OC)cc4)c(S(=O)(=O)O)c3)cc2S(=O)(=O)O)cc1`, the GI50 in the test with MCF7 and with XF498 was > 100 µM (inactive) throughout.

Regarding `O=[N+]([O-])c1cc2ncc(-c3ccccc3)c(O)c2cc1/C(Cl)=C/c1ccccc1`, the results for the GI50 with MCF7 and in the test on XF498 were 5.02 µM (inactive) and 8.24 µM (inactive), respectively.

As for `CC1CN=C(Nc2cccc(C(F)(F)F)c2)S1` (stereo unspecified), the GI50 in the test on DU-145 is 70.8 µM (inactive); with TK-10, 84.5 µM (inactive); in the test on MCF7 it was 44.7 µM (inactive); in the test on BT-549, 80 µM (inactive).

For the compound `CC(=O)NC(Cc1ccsc1)C(=O)O` (stereo unspecified), the GI50 with MCF7 was > 100 µM (inactive); in the test with XF498 it was > 35.4 µM (inactive).

The values are drawn from ChEMBL document CHEMBL1201862, “PubChem BioAssay data set” (2004).
